The values that follow come from patent publication US20060040991A1, “Pharmaceutical presentation form for oral administration of a poorly soluble active compound, process for its preparation and kit” (Baxter International Inc., priority 2004, published 2006).

The structures appear in SMILES notation.

Data set [1] has as its system tubulin. As to conditions: cited from earlier work.
Data set [2] in a line: Bioavailability on peroral administration in customary presentation forms. The class given is in vivo.
Data set [3] is described as follows: Solubility of indibulin in solvents. It counts as physicochemical.

Regarding `O=C(Nc1ccncc1)C(=O)c1cn(Cc2ccc(Cl)cc2)c2ccccc12` [indibulin, N-(pyridin-4-yl)-[1-(4-chlorobenzyl)indol-3-yl]-glyoxylamide], in data set [1], the “in vitro and in vivo activity as a tubulin inhibitor” value is listed as “significant”. Moreover, the bioavailability result is listed as “comparatively low” in data set [2] (micronized active compound processed to oral presentation forms (suspensions, capsules or tablets)) and “low” in data set [2] (perorally in customary presentation forms, e.g. powder, granule, tablet or capsule). Moreover, the “solubility in various organic solvents” value in data set [3] (dimethylformamide, dimethyl sulfoxide and N-methylpyrrolidone) is on record as “Adequate solubility”. Besides, in data set [3] (greater than 50% by weight, e.g. acetic acid or lactic acid), the “solubility in highly concentrated organic acids” value is reported as “relatively good solvents”. In data set [3] (water, methanol, ethanol and isopropanol), the “solubility in hydrophilic solvents” value was “virtually insoluble”.
